# Laboratory results taken from patent publication US5254686A, “Procaine double salt complexes” (priority 1992, dated 1993).
# Where a name gives a salt, the structure may show the parent alone.
# Experiments:
# [1] = solubility in water and ethanol; format: physicochemical
# Experimental: To 50 mls. of boiling water was added 27.2 grams (0.1 mole) of procaine HCl with stirring until completely dissolved. With stirring was added 12.3 grams (0.1 mole) of nicotinic acid. This mixture was heated at the boiling point until clear. The solution was allowed to cool and a white crystalline precipitate formed which was separated in a Buchner funnel and washed twice with […] of cold distilled water. […] In contrast, a 1:1 molar mixture of procaine HCl and nicotinic acid melts at 145°-150° C.
# Into a hot solution of 50 mls of ethanol and 30 mls of water was dissolved 2.72 grams (0.01 mole) of procaine HCl. To this was added 2.44 grams (0.01 mole) of biotin and heat was maintained until the ingredients reacted and the solution cleared. On cooling, crystallization took place easily. White crystalline platelets were filtered, washed and dried.
# plasma cholinesterase = conditions: once absorbed; into PABA and DEAE; cited from earlier work
# [2] = hydrochloride salt form; cited from earlier work
# [3] = 1.3-6.5 moles of caffeine per mole of procaine, aqueous solutions; cited from earlier work
# [4] = unlike other mental stimulants such as amphetamines; cited from earlier work
structure (smiles),measurement,setting,value
"CCN(CC)CCOC(=O)c1ccc(N)cc1 [IV, 1:1 Complex of Procaine HCl and Biotin]",solubility in water and ethanol,[1]; water and ethanol,partly soluble
"CCN(CC)CCOC(=O)c1ccc(N)cc1 [Procaine hydrochloride, procaine hydrochloride]",hydrolysis by plasma cholinesterase,plasma cholinesterase,rapidly hydrolyzed
same,solubility in water,[2],soluble in water
Cn1c(=O)c2c(ncn2C)n(C)c1=O [caffeine],inhibition of procaine hydrolysis,[3],shown to inhibit procaine hydrolysis
"CCN(CC)CCO [DEAE, diethylaminoethanol]",adverse side effects,[4],no adverse side effects such as depression
"CCN(CC)CCOC(=O)c1ccc(N)cc1 [II, 1:1 Complex of Procaine HCl and Nicotinic Acid]",solubility in water and 95% ethanol,[1]; water and 95% ethanol,moderately soluble
